# Measurements as given in patent US10450347B2, “Immunomodulators” (BRISTOL-MYERS SQUIBB COMPANY, priority 2015, dated 2019).
# Starred links: 1 amine or outer side, 2 acyl side, 3 side chain; linkers in the order of their positions; H or OH if unused. Positions of bridges follow the written chain, without caps; N, C: chain ends. Non-standard residues stand in square brackets, D forms with d. Residues, ends and D or L forms follow the SMILES beside them. Tyrψ(CN4)Ala = C[C@@H](C(=O)[*:2])n1nnnc1[C@H](Cc1ccc(O)cc1)N[*:1]; X1 = CCCC[C@@H](C(=O)[*:2])n1nnnc1[C@H](Cc1c[nH]c2ccccc12)N[*:1]; X3 = O=C(C[C@@H](CO)C(=O)[*:2])[C@H](Cc1c[nH]c2ccccc12)N[*:1]; X4 = CCCC[C@@H](C(=O)[*:2])n1nnnc1[C@H](Cc1csc2ccccc12)N[*:1]; X5 = C[C@@H](C(=O)[*:2])n1nnnc1[C@H](Cc1ccccc1)N[*:1]; Bta = N[C@@H](Cc1csc2ccccc12)C(=O)O; Hyp = O=C(O)[C@@H]1C[C@@H](O)CN1; NMeNle = CCCC[C@H](NC)C(=O)O; NMeA = CN[C@@H](C)C(=O)O; Orn = NCCC[C@H](N)C(=O)O; Dap = NC[C@H](N)C(=O)O; Sar = CNCC(=O)O
# Biological target: T1, PD-1-Ig/PD-L1-His (Homo sapiens, UniProt Q9NZQ7)
# T1 construct: [hPD-L1(19-239)-tobacco vein mottling virus protease cleavage site (TVMV)-His]; made in house; host or cells: HEK293T cells
# T1 sequence (Q9NZQ7 with tags, fused parts or gaps): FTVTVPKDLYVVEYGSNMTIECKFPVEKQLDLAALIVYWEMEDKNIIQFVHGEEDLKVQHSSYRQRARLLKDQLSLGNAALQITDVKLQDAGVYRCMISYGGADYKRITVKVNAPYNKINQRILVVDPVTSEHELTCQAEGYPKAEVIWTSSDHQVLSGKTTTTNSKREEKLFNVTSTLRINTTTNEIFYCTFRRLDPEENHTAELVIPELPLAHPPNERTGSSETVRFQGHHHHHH
# Assay: PD-1/PD-L1 Homogenous Time-Resolved Fluorescence (HTRF) binding assay
# Conditions: inhibition of PD-1-Ig binding to PD-L1-TVMV-His; numeric values
# Source text: The ability of the macrocyclic peptides of the present disclosure to bind to PD-L1 was investigated using a PD-1/PD-L1 Homogenous Time-Resolved Fluorescence (HTRF) binding assay.
# Homogenous Time-Resolved Fluorescence (HTRF) Assays of Binding of Soluble PD-1 to Soluble PD-L1. Soluble PD-1 and soluble PD-L1 refers to proteins with carboxyl-end truncations that remove the transmembrane-spanning regions and are fused to heterologous sequences, specifically the Fc portion of the human immunoglobuling G sequence (Ig) or the hexahistidine epitope tag (SEQ ID NO: 3) (His). All binding studies were performed in an HTRF assay buffer consisting of dPBS supplemented with 0.1% (w/v) bovine serum albumin and 0.05% (v/v) Tween-20. For the PD-1-Ig/PD-L1-His binding assay, inhibitors were pre-incubated with PD-L1-His (10 nM final) for 15 m in 4 μl of assay buffer, followed by addition of PD-1-Ig (20 nM final) in 1 μl of assay buffer and further incubation for 15 m. PD-L1 fusion proteins from either human, cynomologous macaques, mouse, or other species were used. HTRF detection was achieved using europium crypate-labeled anti-Ig monoclonal antibody (1 nM final) and allophycocyanin (APC) labeled anti-His monoclonal antibody (20 nM final). Antibodies were diluted in HTRF detection buffer and 5 μl was dispensed on top of binding reaction. The reaction was allowed to equilibrate for 30 minutes and signal (665 nm/620 nm ratio) was obtained using an EnVision fluorometer. Additional binding assays were established between PD-1-Ig/PD-L2-His (20 and 5 nM, respectively), CD80-His/PD-L1-Ig (100 and 10 nM, respectively) and CD80-His/CTLA4-Ig (10 and 5 nM, respectively). Binding/competition studies between biotinylated Compound No. 71 and human PD-L1-His were performed as follows. Macrocyclic peptide inhibitors were pre-incubated with PD-L1-His (10 nM final) for 60 minutes in 4 μl of assay buffer followed by addition of biotinylated Compound No. 71 (0.5 nM final) in 1 μl of assay buffer. Binding was allowed to equilibrate for 30 minutes followed by addition of europium crypated labeled Streptavidin (2.5 pM final) and APC-labeled anti-His (20 nM final) in 5 μl of HTRF buffer. The reaction was allowed to equilibrate for 30 m and signal (665 nm/620 nm ratio) was obtained using an EnVision fluorometer.
# Recombinant Proteins. Carboxyl-truncated human PD-1 (amino acids 25-167) with a C-terminal human Ig epitope tag [hPD-1 (25-167)-3S-IG] and human PD-L1 (amino acids 18-239) with a C-terminal His epitope tag [hPD-L1(19-239)-tobacco vein mottling virus protease cleavage site (TVMV)-His] were expressed in HEK293T cells and purified sequentially by recombinant Protein A affinity chromatography and size exclusion chromatography. Human PD-L2-His (Sino Biologicals), CD80-His (Sino Biologicals), CTLA4-Ig (RnD Systems) were all obtained through commercial sources.
row,IC50,SMILES
1,200 nM,"CCCC[C@H]1C(=O)N(C)[C@@H](CCCC)C(=O)N[C@@H](CCCNC(=N)N)C(=O)N[C@H](C(=O)NCC(N)=O)CSCC(=O)N[C@@H](Cc2ccccc2)c2nnnn2[C@@H](C)C(=O)N[C@@H](CC(N)=O)C(=O)N2CCC[C@H]2C(=O)N[C@@H](Cc2cnc[nH]2)C(=O)N[C@@H](CC(C)C)C(=O)N(C)CC(=O)N[C@@H](Cc2c[nH]c3ccccc23)C(=O)N[C@@H](CO)C(=O)N[C@@H](Cc2c[nH]c3ccccc23)C(=O)N1C (single isomer, unassigned) [Example 1002]"
2,30 nM,CCCC[C@H]1C(=O)N(C)[C@@H](CCCC)C(=O)N[C@@H](CCCNC(=N)N)C(=O)N[C@H](C(=O)NCC(N)=O)CSCC(=O)N[C@@H](Cc2ccc(O)cc2)c2nnnn2[C@@H](C)C(=O)N[C@@H](CC(N)=O)C(=O)N2CCC[C@H]2C(=O)N[C@@H](Cc2cnc[nH]2)C(=O)N[C@@H](CC(C)C)C(=O)N(C)CC(=O)N[C@@H](Cc2c[nH]c3ccccc23)C(=O)N[C@@H](CO)C(=O)N[C@@H](Cc2c[nH]c3ccccc23)C(=O)N1C [Example 1012] ({CH2CO}-[Tyrψ(CN4)Ala]NPHL[Sar]WSW[NMeNle][NMeNle]RCG-NH2; thioether N-13)

# Same assay, conditions: inhibition of PD-1-Ig binding to PD-L1-TVMV-His; range classes
row,SMILES,IC50
1,"CCCC[C@@H]1C(=O)N[C@@H](CCCNC(=N)N)C(=O)N[C@H](C(=O)NCC(N)=O)CSCC(=O)N[C@@H](Cc2ccccc2)c2cnnn2[C@@H](C)C(=O)N[C@H](CC(N)=O)C(=O)N2CCC[C@H]2C(=O)N[C@@H](Cc2cnc[nH]2)C(=O)N[C@@H](CC(C)C)C(=O)N(C)CC(=O)N[C@@H](Cc2c[nH]c3ccccc23)C(=O)N[C@@H](CO)C(=O)N[C@@H](Cc2c[nH]c3ccccc23)C(=O)N(C)[C@@H](CCCC)C(=O)N1C (single isomer, unassigned) [Example 1003]",100 to 10000 nM
2,"CCCC[C@@H]1C(=O)N[C@@H](CCCNC(=N)N)C(=O)N[C@H](C(=O)NCC(N)=O)CSCC(=O)N[C@@H](Cc2ccccc2)c2cnnn2[C@@H](C)C(=O)N[C@H](CC(N)=O)C(=O)N2CCC[C@H]2C(=O)N[C@@H](Cc2cnc[nH]2)C(=O)N[C@@H](CC(C)C)C(=O)N(C)CC(=O)N[C@@H](Cc2c[nH]c3ccccc23)C(=O)N[C@@H](CO)C(=O)N[C@@H](Cc2c[nH]c3ccccc23)C(=O)N(C)[C@@H](CCCC)C(=O)N1C (single isomer, unassigned) [Example 1004]",100 to 10000 nM
3,CCCC[C@H]1C(=O)NC(CCCNC(=N)N)C(=O)N[C@H](C(=O)NCC(N)=O)CSCC(=O)N[C@@H](Cc2ccc(O)cc2)C(=O)N(C)[C@@H](C)C(=O)N[C@@H](CC(N)=O)C(=O)N2CCC[C@H]2C(=O)N[C@@H](Cc2cnc[nH]2)C(=O)N[C@@H](CC(C)C)C(=O)N2CCC[C@H]2C(=O)N[C@@H](Cc2c[nH]c3ccccc23)C(=O)N[C@@H](CO)C(=O)N[C@@H](Cc2cccc3ccccc23)c2nnnn2[C@@H](CCCC)C(=O)N1C (some centres unmarked) [Example 1006],100 to 10000 nM
4,CCCCC1C(=O)N(C)[C@@H](CCCC)C(=O)N[C@@H](CCCNC(=N)N)C(=O)N[C@H](C(=O)NCC(N)=O)CSCC(=O)N[C@@H](Cc2ccccc2)c2nnnn2[C@@H](C)C(=O)N[C@@H](CC(N)=O)C(=O)N2CCC[C@H]2C(=O)N[C@@H](Cc2cnc[nH]2)C(=O)N[C@@H](CC(C)C)C(=O)N(C)CC(=O)N[C@@H](Cc2c[nH]c3ccccc23)C(=O)N[C@@H](CO)C(=O)N[C@@H](Cc2cccc3ccccc23)c2nnnn21 (some centres unmarked) [Example 1007],100 to 10000 nM
5,CCCC[C@H]1C(=O)N(C)[C@@H](CCCC)C(=O)N[C@@H](CCCNC(=N)N)C(=O)N[C@H](C(=O)NCC(N)=O)CSCC(=O)N[C@@H](Cc2ccccc2)c2nnnn2[C@@H](C)C(=O)N[C@@H](CC(N)=O)C(=O)N2CCC[C@H]2C(=O)N[C@@H](Cc2cnc[nH]2)C(=O)N[C@@H](CC(C)C)C(=O)N2CCC[C@H]2C(=O)N[C@@H](Cc2c[nH]c3ccccc23)C(=O)N[C@@H](CO)C(=O)N[C@@H](Cc2csc3ccccc23)C(=O)N1C [Example 1010] ({CH2CO}-[X5]NPHLPWS[Bta][NMeNle][NMeNle]RCG-NH2; thioether N-13),100 to 10000 nM
6,CCCC[C@H]1C(=O)N[C@@H](CCCN)C(=O)N[C@H](C(=O)NCC(N)=O)CSCC(=O)N[C@@H](Cc2ccc(O)cc2)C(=O)N(C)[C@@H](C)C(=O)N[C@@H](CC(N)=O)C(=O)N2CCC[C@H]2C(=O)N[C@@H](Cc2cnc[nH]2)C(=O)N[C@@H](CC(C)C)C(=O)N2C[C@H](O)C[C@H]2C(=O)N[C@@H](Cc2c[nH]c3ccccc23)C(=O)C[C@@H](CO)C(=O)N[C@@H](Cc2csc3ccccc23)c2nnnn2[C@@H](CCCC)C(=O)N1C [Example 1013] ({CH2CO}-Y[NMeA]NPHL[Hyp][X3][X4][NMeNle][Orn]CG-NH2; thioether N-12),10 to 99 nM
7,CCCC[C@H]1C(=O)N(C)[C@@H](CCCC)C(=O)N[C@@H](CCCN)C(=O)N[C@H](C(=O)NCC(N)=O)CSCC(=O)N[C@@H](Cc2ccc(O)cc2)c2nnnn2[C@@H](C)C(=O)N[C@@H](CC(N)=O)C(=O)N2CCC[C@H]2C(=O)N[C@@H](CN)C(=O)N[C@@H](CC(C)C)C(=O)N2C[C@H](O)C[C@H]2C(=O)N[C@@H](Cc2c[nH]c3ccccc23)C(=O)N[C@@H](CO)C(=O)N[C@@H](Cc2c[nH]c3ccccc23)C(=O)N1C [Example 1014] ({CH2CO}-[Tyrψ(CN4)Ala]NP[Dap]L[Hyp]WSW[NMeNle][NMeNle][Orn]CG-NH2; thioether N-13),5 to 9.9 nM
8,CCCC[C@H]1C(=O)N[C@@H](CCCN)C(=O)N[C@H](C(=O)NCC(N)=O)CSCC(=O)N[C@@H](Cc2ccc(O)cc2)C(=O)N(C)[C@@H](C)C(=O)N[C@@H](CC(N)=O)C(=O)N2CCC[C@H]2C(=O)N[C@@H](Cc2cnc[nH]2)C(=O)N[C@@H](CC(C)C)C(=O)N2C[C@H](O)C[C@H]2C(=O)N[C@@H](Cc2c[nH]c3ccccc23)C(=O)N[C@@H](CO)C(=O)N[C@@H](Cc2c[nH]c3ccccc23)c2nnnn2[C@@H](CCCC)C(=O)N1C [Example 1050] ({CH2CO}-Y[NMeA]NPHL[Hyp]WS[X1][NMeNle][Orn]CG-NH2; thioether N-13),100 to 10000 nM

# The next lines start with the values.
row,IC50,SMILES
1,100 to 10000 nM,"CCCC[C@H]1C(=O)N(C)[C@@H](CCCC)C(=O)N[C@@H](CCCNC(=N)N)C(=O)N[C@H](C(=O)NCC(N)=O)CSCC(=O)N[C@@H](Cc2ccccc2)c2nnnn2[C@@H](C)C(=O)N[C@@H](CC(N)=O)C(=O)N2CCC[C@H]2C(=O)N[C@@H](Cc2cnc[nH]2)C(=O)N[C@@H](CC(C)C)C(=O)N(C)CC(=O)N[C@@H](Cc2c[nH]c3ccccc23)C(=O)N[C@@H](CO)C(=O)N[C@@H](Cc2c[nH]c3ccccc23)C(=O)N1C (single isomer, unassigned) [Example 1001]"
2,100 to 10000 nM,"CCCC[C@H]1C(=O)N(C)CC(=O)N[C@@H](CC(=O)O)C(=O)N[C@@H](C(C)C)C(=O)N(C)[C@@H](Cc2ccccc2)C(=O)N[C@@H](Cc2ccc(O)cc2)C(=O)N(C)CC(=O)N[C@@H](Cc2c[nH]c3ccccc23)C(=O)N[C@@H](Cc2ccc(O)cc2)C(=O)N[C@@H](CC(C)C)C(=O)N[C@H](C(=O)NCC(N)=O)CSCC(=O)NC(Cc2ccccc2)c2nnnn2[C@@H](Cc2ccccc2)C(=O)N1C (single isomer, unassigned) [Example 3001]"
3,100 to 10000 nM,"CCCC[C@H]1C(=O)N(C)CC(=O)N[C@@H](CC(=O)O)C(=O)N[C@@H](C(C)C)C(=O)N(C)[C@@H](Cc2ccccc2)C(=O)N[C@@H](Cc2ccc(O)cc2)C(=O)N(C)CC(=O)N[C@@H](Cc2c[nH]c3ccccc23)C(=O)N[C@@H](Cc2ccc(O)cc2)C(=O)N[C@@H](CC(C)C)C(=O)N[C@H](C(=O)NCC(N)=O)CSCC(=O)NC(Cc2ccccc2)c2nnnn2[C@@H](Cc2ccccc2)C(=O)N1C (single isomer, unassigned) [Example 3002]"
4,100 to 10000 nM,CCCC[C@H]1C(=O)N[C@H](CCCNC(=N)N)C(=O)N[C@@H](C(=O)NCC(N)=O)CSCC(=O)N[C@@H](Cc2ccccc2)C(=O)N(C)[C@@H](C)C(=O)N[C@@H](CC(N)=O)C(=O)N2CCC[C@H]2C(=O)N[C@@H](Cc2cnc[nH]2)C(=O)N[C@@H](CC(C)C)C(=O)N(C)CC(=O)N[C@@H](Cc2c[nH]c3ccccc23)C(=O)N[C@@H](CO)C(=O)N[C@@H](Cc2cccc3ccccc23)c2nnnn2[C@@H](CCCC)C(=O)N1C [Example 1005]
